Holding throughout (assay type): functional
The subject of one assay is HL-60. The assay is described as follows: Antitumor activity against human HL-60 cells assessed as inhibition of cell growth at 40 uM incubated for 48 hrs by MTS assay relative to control. Background: Tetrazolium dyes change colour on reduction, which living cells bring about.
The test system of assay [1] is A549. The assay is described as follows: Antitumor activity against human A549 cells assessed as inhibition of cell growth at 40 uM incubated for 48 hrs by MTS assay relative to control.
For another assay, the system named is SMMC-7721. The assay is described as follows: Antitumor activity against human SMMC-7721 cells assessed as inhibition of cell growth at 40 uM incubated for 48 hrs by MTS assay relative to control.
The test system of the next assay is MCF7. The assay is described as follows: Antitumor activity against human MCF7 cells assessed as inhibition of cell growth at 40 uM incubated for 48 hrs by MTS assay relative to control.
For another assay, the system named is SW480. The assay is described as follows: Antitumor activity against human SW480 cells assessed as inhibition of cell growth at 40 uM incubated for 48 hrs by MTS assay relative to control.
Assay [2] relates to A549. The assay is described as follows: Induction of apoptosis in human A549 cells assessed as live cells at 1 uM measured after 24 hrs by Annexin V-PE/7-AAD dual staining based flow cytometry (reference value: 93.3 %). Background: A flow cytometer gives signals particle by particle.
Assay [3] relates to A549. The assay is described as follows: Induction of apoptosis in human A549 cells assessed as early apoptotic cells at 1 uM measured after 24 hrs by Annexin V-PE/7-AAD dual staining based flow cytometry (reference value: 4.04 %).
In assay [4] the test system is A549. The assay is described as follows: Induction of apoptosis in human A549 cells assessed as late apoptotic cells at 1 uM measured after 24 hrs by Annexin V-PE/7-AAD dual staining based flow cytometry (reference value: […]).
For assay [5], the system named is A549. Briefly: Induction of apoptosis in human A549 cells assessed as necrotic cells at 1 uM measured after 24 hrs by Annexin V-PE/7-AAD dual staining based flow cytometry (reference value: 0.150 %).

With `O=C(NCC1(N2CCOCC2)CCCCC1)c1ccc2c(c1)C(=O)N(c1ccc(F)cc1)C2=O`, the inhibition – broadly, the change of the read-out against control, counted positive when it falls – at 40 µM with HL-60 stood at 11.5%; with A549 [1] it was 9.68%; in the assay with SMMC-7721 it was 16.4%; with MCF7, 13.6%; with SW480, 8.82%.
Taken in the same sequence, the figures for `N#CCCCN1C(=O)C(O)(CC(=O)c2ccc3c(c2)OCCO3)c2ccccc21` (centres undefined) were -21.4%, 7.13%, 11.5%, -0.19% and 13.5%.
For `COc1cccc2c1C(=O)c1c(O)c3c(c(O)c1C2=O)C[C@@](O)(C(=O)CO)C[C@@H]3O[C@H]1C[C@H](N)[C@H](O)[C@H](C)O1` [DOXORUBICIN], the Activity in the assay on A549 [2] is 49.8%; with A549 [3] it was 30.8%; in the assay with A549 [4], 18.4%; with A549 [5] it was 0.965%.
`CC1=CC(C2CC(=O)N(c3ccccc3C)C2=O)CC2C(=O)N(c3ccccc3C)C(=O)C12` (centres undefined): the inhibition at 40 µM was 10.7% in the assay on HL-60; 4.1% in the assay on A549 [1]; 9.68% in the assay on SMMC-7721; 12.3% in the assay on MCF7; 6.73% with SW480.
On the same counts, the results for `CCOC(=O)C1(Cc2ccccc2)C(=O)N(CCCN(C)C)c2ccccc21` (centres undefined) are 5.85%, 7.46%, 12.8%, 28.9% and 3.98%.
Taken in the same sequence, the figures for `COc1cc(C(C)=O)ccc1OC(=O)C(C)N1C(=O)c2ccccc2C1=O` (centres undefined) were 8.86%, 6.5%, 6.87%, 15.3% and 4.18%.
Taken in the same sequence, the figures for `NC(=O)CN1C(=O)C(O)(CC(=O)c2ccc3c(c2)OCO3)c2ccccc21` (centres undefined) were 21.6%, 11.2%, 11.6%, 6.11% and 14.8%.
Take `Cc1cccc(NC(=O)CN2C(=O)C(=O)c3ccccc32)c1`: the inhibition at 40 µM with HL-60 worked out at 25.1%; in the assay with A549 [1], 7.75%; with SMMC-7721 it was 40.2%; in the assay with MCF7 it was 45.2%; with SW480, 31.8%.
As to `O=C(CC1(O)C(=O)N(CN2CCOCC2)c2ccccc21)c1ccc(Cl)cc1` (centres undefined), the inhibition at 40 µM is 15.6% in the assay with HL-60; 1.72% in the assay on A549 [1]; 15.2% in the assay with SMMC-7721; 8.23% in the assay on MCF7; 15.3% with SW480.

(Values after ChEMBL document CHEMBL5154857, “Discovery of potential novel CRBN modulators by virtual screening and bioassay” (Eur J Med Chem, 2022).)
